Laboratory results reported in patent EP4813376A1, “PHARMACEUTICAL COMPOSITION FOR PREVENTION OR TREATMENT OF BREAST CANCER” (Astrion Inc., priority 2023, dated 2025).

How the values were obtained:
[1] = test system: SUM149; assay: SRB assay with Bliss synergy scoring, combination with paclitaxel; format: cell-based, human; conditions: AON-MG23 combined with paclitaxel, SUM149, five days co-treatment, score > 0 indicates a synergistic effect, FIG. 10A
Protocol: (§1) The combination effect of compound AON-MG23 of the present invention was confirmed using Bliss scoring based on the results of the sulforhodamine B assay (SRB assay). Specifically, human breast cancer cell lines SUM149 and HCC1806 were plated in a 96-well cell culture plate at a density of 1 x 10^3 cells/well. On the next day, paclitaxel, the drug to be tested for the combination effect with compound AON-MG23 of the present invention, was diluted to concentrations for testing, and cells were cultured for 24 hours. After carefully removing the cell culture medium, the cells were co-treated with AON-MG23 and paclitaxel at different concentrations and cultured for five days. […] The absorbance of the dissolved solution was measured at […] using a plate reader. The measured absorbance values were compared to the control group, converted into percentages, and saved in an Excel file format. […] The presence of a synergistic effect was evaluated according to the following criteria based on relevant literature (Bliss, C. I. (1939). The toxicity of poisons applied jointly. Annals of Applied Biology, 26(3), 585-615.): a score > 0 indicates a synergistic effect; a score = 0 indicates an independent effect; and a score < 0 indicates an antagonistic effect.

[2] = test system: HCC1806; assay: as above; format: cell-based, human; conditions: AON-MG23 combined with paclitaxel, HCC1806, five days co-treatment, score > 0 indicates a synergistic effect, FIG. 10B
Protocol: as §1

[3] = test system: six breast cancer cell lines (SUM149, BCX010, BT20, MDA-MB-231-LM3, CAL51, PyMT-N); assay: colony formation test; format: cell-based, human; conditions: 0.25 µM, 0.5 µM and 1 µM, 11 to 14 days, all six cell lines, FIGS. 2A to 2C
Protocol: To confirm the proliferation inhibitory effect of the compound of the present invention on breast cancer cells, a colony formation test was conducted. Specifically, six breast cancer cell lines (SUM149, BCX010, BT20, MDA-MB-231-LM3, CAL51, PyMT-N) were plated in a 6-well cell culture plate at a density of 250 or 1,000 cells per well. On the next day, the cell culture medium was removed and replaced with a cell culture medium containing compound AON-MG23 of the present invention at concentrations of 0 µM, 0.25 µM, 0.5 µM, and 1 µM. After culturing the cells for 11 to 14 days, the resulting cell colonies were stained and photographed, and then the cell colonies were counted and analyzed using Image J software.

[4] = test system: four breast cancer cell lines (SUM149, BCX010, BT20, MDA-MB-231-LM3); assay: soft agar assay (tumorigenicity); format: cell-based; conditions: Homo sapiens, 336 h, 100 nM, 500 nM, 1000 nM tested, two weeks, FIGS. 3A and 3B, read-out: concentration from which tumorigenicity was inhibited
Protocol: To confirm the tumorigenicity inhibitory effect of the compound of the present invention on breast cancer cells, an […] soft agar assay was performed. Specifically, 0.5% agar or 0.7% agar was added to cell culture media diluted with the compound of the present invention at concentrations of 0 nM, 100 nM, 500 nM, and 1000 nM. 2 ml of 0.5% agar containing the compound of the present invention at various concentrations was added to a 6-well cell culture plate and solidified at room temperature. Thereafter, 1 ml of 1 x 10^4 cells of four breast cancer cell lines (SUM149, BCX010, BT20, MDA-MB-231-LM3) and 1 ml of 0.7% agar containing the compound of the present invention at various concentrations were mixed in a 1:1 ratio to prepare a 0.35% solution, and 2 ml of this solution was placed on top of the solidified 0.5% agar. The mixture was then solidified at room temperature until the upper layer was fixed, and then cells were cultured in an incubator at 37 °C and 5% CO2 for two weeks. The formed cell clones were stained and photographed, and then the cell clones were counted and analyzed using Image J software.

[5] = test system: MDA-MB-231; assay: Matrigel invasion assay (Transwell membrane insert), 24 hours; format: cell-based, human; conditions: 0.5 µM and 1 µM, reduction dependent on concentration, FIG. 8
Protocol: Breast cancer cell line MDA-MB-231 was seeded at a density of 6 x 10^4 cells/well on top of a membrane filter coated with Matrigel(Transwell membrane insert, Corning). Thereafter, the cells were treated with compound AON-MG23 of the present invention at concentrations of 0 µM (DMSO), 0.5 µM, and 1 µM, and cultured in a CO2 incubator at 37 °C for 24 hours. After 24 hours of culture, the cells on the bottom surface of the membrane filter were stained and photographed under a microscope, and counted and analyzed using Image J software.

[6] = test system: MDA-MB-231 cells; assay: cell migration assay in SPLScar Block plates; format: cell-based; conditions: Homo sapiens, 24 hours, FIG. 4, read-out: inhibition of migration of MDA-MB-231 cells compared to the control group
Protocol: Human breast cancer cell line MDA-MB-231 cells were seeded in SPLScar Block plates (SPL LIFE SCIENCES) at a density of 7 x 10^4/well and cultured for 24 hours. […], the blocks were removed, and at the same time, compound AON-MG23 of the present invention was applied at various concentrations. Thereafter, cells were cultured in a CO2 incubator at 37 °C for 24 hours. The cells were treated with the compound of the present invention at various concentrations of 0 µM, 0.5 µM, 1 µM, 2 µM, and 4 µM. Photographs were taken before and after each culture, and the migration distance of the cells was measured using Image J software. Based on the results, the inhibition of the cell migration was analyzed.

[7] = test system: MDA-MB-231 cells; assay: CCK assay, proliferation of breast cancer cells; format: cell-based, human; conditions: MDA-MB-231, 0.1 to 16 µM, 48 hours, absorbance at 450 nm, FIG. 1
Protocol: Human breast cancer cell line MDA-MB-231 cells were plated in a 96-well plate at a density of 1 x 10^5 cells/well and cultured for 24 hours. Thereafter, the cells were treated with compound AON-MG23 of the present invention at various concentrations and cultured for 48 hours. The cells were treated with the compound of the present invention at various concentrations of 0 µM, 0.1 µM, 0.25 µM, 0.5 µM, 1 µM, 2 µM, 4 µM, 8 µM, and 16 µM. 10 µL of cell counting kit (CCK) reagent was added and allowed to react for one hour, and then the absorbance was measured at 450 nm.

[8] = test system: MDA-MG231-LM3 cells; assay: Transwell membrane filter migration assay; format: cell-based, human; conditions: cells pre-treated with 0.5 µM, eight hours, FIG. 6
Protocol: Breast cancer cell line MDA-MG231-LM3 cells pre-treated with 0.5 µM of compound AON-MG23 of the present invention and cells that were not treated were prepared. […] The membrane filter seeded with the cells was placed into a 24-well plate supplemented with a cell culture medium containing fetal bovine serum and cultured for eight hours in an incubator at 37°C and 5% CO2. Cells that migrated to the bottom surface of the membrane filter were stained and photographed under a microscope, and counted and analyzed using Image J software.

[9] = test system: MDA MB-231 cells; assay: Matrigel invasion assay (Transwell invasion chamber), 20 hours; format: cell-based, human; conditions: 0.5, 1, 2, 4 µM, FIG. 7
Protocol: Human breast cancer cell line MDA MB-231 cells were seeded at a density of 6 x 10^4 cells/well on top of a filter coated with Matrigel (Transwell invasion chamber, Corning), treated with compound AON-MG23 of the present invention (0, 0.5, 1, 2, 4 µM), and cultured in a CO2 in an incubator at 37 °C for 20 hours. After culture, cell fixation and staining were performed using the Diff-Quick stain Kit (Sysmex, Kobe, Japan). The stained cells were imaged under a microscope, and the cells were counted and statistically analyzed using Image J software.

COc1cc(N2CCC(N(C)C)CC2)ccc1Nc1ncc(Cl)c(Nc2ccccc2N(C2CC2)S(C)(=O)=O)n1 [AON-MG23, N-(2-((5-chloro-2-((4-(4-(dimethylamino)piperidin-1-yl)-2-methoxyphenyl)amino)pyrimidin-4-yl)amino)phenyl)-N-cyclopropylmethanesulfonamide]
Bliss synergy scoring [1]: 18.743 points | Bliss synergy scoring [2]: 9.249 points | cell colony formation [3]: inhibited | minimal effective concentration [4]: ≥ 0.1 µM | degree of penetration into Matrigel compared to the untreated control group [5]: reduced degree of penetration into Matrigel | inhibition at 0.5 µM [6]: 50% | proliferation of breast cancer cells [7]: inhibited | cell migration compared to the untreated group [8]: inhibited | degree of penetration into Matrigel compared to the untreated control group [9]: reduced degree of penetration into Matrigel
